Source: patent publication US9169254B2, “Spiroimidazolone derivative” (Chugai Seiyaku Kabushiki Kaisha, priority 2009, dated 2015)

Molecular target: T1, human PTH1 receptor (Homo sapiens, UniProt Q03431)
T1 sequence (Q03431 27-593): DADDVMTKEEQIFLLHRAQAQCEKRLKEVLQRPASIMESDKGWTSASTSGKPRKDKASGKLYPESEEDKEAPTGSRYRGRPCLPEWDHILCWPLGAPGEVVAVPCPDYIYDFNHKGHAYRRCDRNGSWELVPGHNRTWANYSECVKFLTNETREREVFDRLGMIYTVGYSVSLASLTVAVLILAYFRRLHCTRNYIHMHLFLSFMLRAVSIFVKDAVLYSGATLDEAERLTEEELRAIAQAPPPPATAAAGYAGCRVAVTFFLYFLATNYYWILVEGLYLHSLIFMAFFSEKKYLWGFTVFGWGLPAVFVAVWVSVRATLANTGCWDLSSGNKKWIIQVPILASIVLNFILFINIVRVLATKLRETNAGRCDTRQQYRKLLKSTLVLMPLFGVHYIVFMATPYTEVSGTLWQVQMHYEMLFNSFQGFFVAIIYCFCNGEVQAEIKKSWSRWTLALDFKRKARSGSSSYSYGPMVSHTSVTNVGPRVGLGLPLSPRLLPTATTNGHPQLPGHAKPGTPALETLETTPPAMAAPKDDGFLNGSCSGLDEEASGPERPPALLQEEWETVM
Assay: In vitro cAMP signal activity in HKRK-B7 cells (LLC-PK1 cells overexpressing the human PTH1 receptor)
Format: cell-based
Settings: HKRK-B7 cells; compound at 1×10^−3 M; cAMP produced as percentage of that produced by hPTH(1-34) at 100 nM

| SMILES | cAMP production activity (%) |
| --- | --- |
| O=C1NC(c2cccc(C(F)(F)F)c2)=NC12CCN(S(=O)(=O)c1ccc(Cl)s1)CC2 [Compound 66, 8-(5-Chloro-thiophene-2-sulfonyl)-2-(3-trifluoromethyl-phenyl)-1,3,8-triaza-spiro[4.5]dec-1-en-4-one] | 57% |
| Cc1cc(C(=O)N2CCN(C(=O)N(C)C)CC2)cc(C)c1/C=C/S(=O)(=O)N1CCC2(CC1)N=C(c1cccc(OC(F)(F)F)c1)NC2=O [Compound 395, 4-(3,5-dimethyl-4-{(E)-2-[4-oxo-2-(3-trifluoromethoxy-phenyl)-1,3,8-triaza-spiro[4.5]dec-1-ene-8-sulfonyl]-vinyl}-benzoyl)-piperazine-1-carboxylic acid dimethylamide] | 88% |
| Cc1cc(CNC(N)=O)cc(C)c1CCS(=O)(=O)N1CCC2(CC1)N=C(C1CCC(CCC(F)(F)F)CC1)NC2=O (centres unmarked) [Compound 1313, [3,5-Dimethyl-4-(2-{4-oxo-2-[4-(3,3,3-trifluoro-propyl)-cyclohexyl]-1,3,8-triaza-spiro[4.5]dec-1-ene-8-sulfonyl}-ethyl)-benzyl]-urea] | 87% |
| Cc1cc(C(=O)N(C)C)ccc1CCS(=O)(=O)N1CCC2(CC1)N=C(C1CCC(CCCC(F)(F)F)CC1)NC2=O (centres unmarked) [Compound 897, 3,N,N-trimethyl-4-(2-{4-oxo-2-[4-(4,4,4-trifluoro-butyl)-cyclohexyl]-1,3,8-triaza-spiro[4.5]dec-1-ene-8-sulfonyl}-ethyl)-benzamide] | 85% |
| CC(C)=C1CCC(C2=NC3(CCN(S(=O)(=O)CCc4c(C)cc(N(C)C(N)=O)cc4C)CC3)C(=O)N2)CC1 (centres unmarked) [Compound 1310, 1-(4-{2-[2-(4-isopropylidene-cyclohexyl)-4-oxo-1,3,8-triaza-spiro[4.5]dec-1-ene-8-sulfonyl]-ethyl}-3,5-dimethyl-phenyl)-1-methyl-urea] | 104% |
| Cc1cc(C(=O)N2CCC[C@@H]2CO)ccc1CCS(=O)(=O)N1CCC2(CC1)N=C(c1cccc(C(F)(F)F)c1)NC2=O [Compound 371, 8-{2-[4-((R)-2-hydroxymethyl-pyrrolidine-1-carbonyl)-2-methyl-phenyl]-ethanesulfonyl}-2-(3-trifluoromethyl-phenyl)-1,3,8-triaza-spiro[4.5]dec-1-en-4-one] | 72% |
| Cc1cc(C(=O)N2CCC(C)(O)CC2)cc(C)c1/C=C/S(=O)(=O)N1CCC2(CC1)N=C(c1ccc(OC(F)(F)C(F)F)cc1)NC2=O [Compound 1213, 8-{(E)-2-[4-(4-hydroxy-4-methyl-piperidine-1-carbonyl)-2,6-dimethyl-phenyl]-ethenesulfonyl}-2-[4-(1,1,2,2-tetrafluoro-ethoxy)-phenyl]-1,3,8-triaza-spiro[4.5]dec-1-en-4-one] | 80% |
| CC(=O)N(C)c1cc(C)c(/C=C/S(=O)(=O)N2CCC3(CC2)N=C(c2cccc(OC(F)(F)F)c2)NC3=O)c(C)c1 [Compound 239, N-(3,5-dimethyl-4-{(E)-2-[4-oxo-2-(3-trifluoromethoxy-phenyl)-1,3,8-triaza-spiro[4.5]dec-1-ene-8-sulfonyl]-vinyl}-phenyl)-N-methyl-acetamide] | 80% |
| O=C(Nc1ccc(CCS(=O)(=O)N2CCC3(CC2)N=C(C2CCCCC2)NC3=O)c(C(F)(F)F)c1)C1CC1 [Compound 271, cyclopropanecarboxylic acid {4-[2-(2-cyclohexyl-4-oxo-1,3,8-triaza-spiro[4.5]dec-1-ene-8-sulfonyl)-ethyl]-3-trifluoromethyl-phenyl}-amide] | 57% |
| Cc1cc(C(=O)N2CCC(C)(O)CC2)cc(C)c1/C=C/S(=O)(=O)N1CCC2(CC1)N=C(c1ccc(Cl)c(Cl)c1)NC2=O [Compound 1185, 2-(3,4-Dichloro-phenyl)-8-{(E)-2-[4-(4-hydroxy-4-methyl-piperidine-1-carbonyl)-2,6-dimethyl-phenyl]-ethenesulfonyl}-1,3,8-triaza-spiro[4.5]dec-1-en-4-one] | 102% |
| Cc1cc(N2C(=O)CNC2=O)cc(C)c1/C=C/S(=O)(=O)N1CCC2(CC1)N=C(c1cccc(OC(F)(F)F)c1)NC2=O [Compound 635, 3-(3,5-Dimethyl-4-{(E)-2-[4-oxo-2-(3-trifluoromethoxy-phenyl)-1,3,8-triaza-spiro[4.5]dec-1-ene-8-sulfonyl]-vinyl}-phenyl)-imidazolidine-2,4-dione] | 93% |
| Cc1cc(NC[C@H](O)CO)ccc1CCS(=O)(=O)N1CCC2(CC1)N=C(c1cccc(Cl)c1)NC2=O [Compound 157, 2-(3-chloro-phenyl)-8-{2-[4-((S)-2,3-dihydroxy-propylamino)-2-methyl-phenyl]-ethanesulfonyl}-1,3,8-triaza-spiro[4.5]dec-1-en-4-one] | 70% |
| Cc1cc(C(=O)N(C)C)ccc1CCS(=O)(=O)N1CCC2(CC1)N=C(c1ccc3ncsc3c1)NC2=O [Compound 143, 4-[2-(2-benzothiazol-6-yl-4-oxo-1,3,8-triaza-spiro[4.5]dec-1-ene-8-sulfonyl)-ethyl]-3,N,N-trimethyl-benzamide] | 4.5% |
| Cc1cc(N2CCN(C(=O)OC(C)(C)C)CC2=O)ccc1/C=C/S(=O)(=O)N1CCC2(CC1)N=C(C1CCC(C)CC1)NC2=O (centres unmarked) [Compound 578, 4-(3-methyl-4-{(E)-2-[2-(4-methyl-cyclohexyl)-4-oxo-1,3,8-triaza-spiro[4.5]dec-1-ene-8-sulfonyl]-vinyl}-phenyl)-3-oxo-piperazine-1-carboxylic acid tert-butyl ester] | 13% |
| Cc1cc(N(C)C(N)=O)cc(C)c1CCS(=O)(=O)N1CCC2(CC1)N=C(c1ccc(F)c(OC(F)(F)F)c1)NC2=O [Compound 1028, 1-(4-{2-[2-(4-Fluoro-3-trifluoromethoxy-phenyl)-4-oxo-1,3,8-triaza-spiro[4.5]dec-1-ene-8-sulfonyl]-ethyl}-3,5-dimethyl-phenyl)-1-methyl-urea] | 75% |
| CC(=O)N(CCOCCO)c1cc(C)c(CCS(=O)(=O)N2CCC3(CC2)N=C(C2CCC(CCC(F)(F)F)CC2)NC3=O)c(C)c1 (centres unmarked) [Compound 820, N-[3,5-dimethyl-4-(2-{4-oxo-2-[4-(3,3,3-trifluoro-propyl)-cyclohexyl]-1,3,8-triaza-spiro[4.5]dec-1-ene-8-sulfonyl}-ethyl)-phenyl]-N-[2-(2-hydroxy-ethoxy)-ethyl]-acetamide] | 98% |
| Cc1cc(C(=O)N2CCC(O)(CF)CC2)cc(C)c1/C=C/S(=O)(=O)N1CCC2(CC1)N=C(c1ccc(OC(F)(F)F)cc1)NC2=O [Compound 1269, 8-{(E)-2-[4-(4-fluoromethyl-4-hydroxy-piperidine-1-carbonyl)-2,6-dimethyl-phenyl]-ethenesulfonyl}-2-(4-trifluoromethoxy-phenyl)-1,3,8-triaza-spiro[4.5]dec-1-en-4-one] | 92% |
| O=C(N1CCOCC1)n1ccc2c(/C=C/S(=O)(=O)N3CCC4(CC3)N=C(C3CCCCC3)NC4=O)cccc21 [Compound 477, 2-cyclohexyl-8-{(E)-2-[1-(morpholine-4-carbonyl)-1H-indol-4-yl]-ethenesulfonyl}-1,3,8-triaza-spiro[4.5]dec-1-en-4-one] | 31% |
| CC(C)(C)OC(=O)N1CCCC(C2=NC3(CCN(S(=O)(=O)CCc4cccc5ccccc45)CC3)C(=O)N2)C1 (centres unmarked) [Compound 38, 3-[8-(2-Naphthalen-1-yl-ethanesulfonyl)-4-oxo-1,3,8-triaza-spiro[4.5]dec-1-en-2-yl]-piperidine-1-carboxylic acid tert-butyl ester] | 52% |
| Cc1cc(N(C)C(N)=O)cc(C)c1CCS(=O)(=O)N1CCC2(CC1)N=C(C1CCC(=CCC(F)(F)F)CC1)NC2=O (centres unmarked) [Compound 939, 1-[3,5-Dimethyl-4-(2-{4-oxo-2-[4-(3,3,3-trifluoro-propylidene)-cyclohexyl]-1,3,8-triaza-spiro[4.5]dec-1-ene-8-sulfonyl}-ethyl)-phenyl]-1-methyl-urea] | 111% |
| Cc1cc(C(=O)N(C)C)ccc1-c1cccc(S(=O)(=O)N2CCC3(CC2)N=C(c2cccc(OC(F)(F)F)c2)NC3=O)c1 [Compound 335, 2-methyl-3′-[4-oxo-2-(3-trifluoromethoxy-phenyl)-1,3,8-triaza-spiro[4.5]dec-1-ene-8-sulfonyl]-biphenyl-4-carboxylic acid dimethylamide] | 28% |
| Cc1cc(C(=O)N2CCC(C)(O)CC2)cc(C)c1/C=C/S(=O)(=O)N1CCC2(CC1)N=C(c1cccc(CC#N)c1)NC2=O [Compound 1187, [3-(8-{(E)-2-[4-(4-hydroxy-4-methyl-piperidine-1-carbonyl)-2,6-dimethyl-phenyl]-ethenesulfonyl}-4-oxo-1,3,8-triaza-spiro[4.5]dec-1-en-2-yl)-phenyl]-acetonitrile] | 75% |
| Cc1cc(S(=O)(=O)NCc2cccnc2)ccc1/C=C/S(=O)(=O)N1CCC2(CC1)N=C(c1cccc(C(F)(F)F)c1)NC2=O [Compound 591, 3-methyl-4-{(E)-2-[4-oxo-2-(3-trifluoromethyl-phenyl)-1,3,8-triaza-spiro[4.5]dec-1-ene-8-sulfonyl]-vinyl}-N-pyridin-3-ylmethyl-benzenesulfonamide] | 34% |
